In ChEMBL document CHEMBL5154935, “Design, Synthesis, and Biological Evaluation of Novel Evodiamine Derivatives as Potential Antihepatocellular Carcinoma Agents” (J Med Chem, 2022):
Active and inactive are the calls of the source. No cut-off for these calls is given here.

Legend:
[1] = biological target: T1, DNA topoisomerase 1 (Homo sapiens) (UniProt P11387); experiment: Inhibition of Top1 (unknown origin) assessed as inhibition of relaxation of supercoiled pBR322 plasmid DNA at 50 uM incubated for 25 mins by ethidium bromide staining based agarose gel electrophoresis analysis relative to control
T1 sequence (whole entry): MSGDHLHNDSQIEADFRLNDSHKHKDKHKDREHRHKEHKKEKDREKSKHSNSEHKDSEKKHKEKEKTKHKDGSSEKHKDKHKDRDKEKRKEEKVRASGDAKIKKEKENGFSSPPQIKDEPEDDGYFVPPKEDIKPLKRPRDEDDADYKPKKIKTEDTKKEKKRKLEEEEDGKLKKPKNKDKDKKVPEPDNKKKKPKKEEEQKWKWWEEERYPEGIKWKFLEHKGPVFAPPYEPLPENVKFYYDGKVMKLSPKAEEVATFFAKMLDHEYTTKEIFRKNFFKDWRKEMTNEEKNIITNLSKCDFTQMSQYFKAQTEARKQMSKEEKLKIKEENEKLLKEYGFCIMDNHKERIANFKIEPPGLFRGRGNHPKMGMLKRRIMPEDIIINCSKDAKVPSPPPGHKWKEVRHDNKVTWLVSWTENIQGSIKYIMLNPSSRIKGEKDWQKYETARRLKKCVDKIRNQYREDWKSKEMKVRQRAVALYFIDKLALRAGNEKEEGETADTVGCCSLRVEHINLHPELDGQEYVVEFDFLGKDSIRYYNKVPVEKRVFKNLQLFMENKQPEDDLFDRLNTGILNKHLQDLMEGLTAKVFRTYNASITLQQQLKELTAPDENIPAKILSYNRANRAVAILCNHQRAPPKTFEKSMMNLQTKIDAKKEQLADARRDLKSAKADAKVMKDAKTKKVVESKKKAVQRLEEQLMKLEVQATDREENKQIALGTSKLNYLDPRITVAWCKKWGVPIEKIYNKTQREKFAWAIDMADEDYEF

[2] = biological target: DNA topoisomerase 2-alpha (Homo sapiens) (UniProt P11388); experiment: Inhibition of human Top2-alpha expressed in baculovirus assessed as inhibition of relaxation of supercoiled pBR322 plasmid DNA at 100 uM incubated for 30 mins in presence of ATP by ethidium bromide staining based agarose gel electrophoresis analysis relative to control
Sequence of DNA topoisomerase 2-alpha (Homo sapiens) (P11388 whole entry): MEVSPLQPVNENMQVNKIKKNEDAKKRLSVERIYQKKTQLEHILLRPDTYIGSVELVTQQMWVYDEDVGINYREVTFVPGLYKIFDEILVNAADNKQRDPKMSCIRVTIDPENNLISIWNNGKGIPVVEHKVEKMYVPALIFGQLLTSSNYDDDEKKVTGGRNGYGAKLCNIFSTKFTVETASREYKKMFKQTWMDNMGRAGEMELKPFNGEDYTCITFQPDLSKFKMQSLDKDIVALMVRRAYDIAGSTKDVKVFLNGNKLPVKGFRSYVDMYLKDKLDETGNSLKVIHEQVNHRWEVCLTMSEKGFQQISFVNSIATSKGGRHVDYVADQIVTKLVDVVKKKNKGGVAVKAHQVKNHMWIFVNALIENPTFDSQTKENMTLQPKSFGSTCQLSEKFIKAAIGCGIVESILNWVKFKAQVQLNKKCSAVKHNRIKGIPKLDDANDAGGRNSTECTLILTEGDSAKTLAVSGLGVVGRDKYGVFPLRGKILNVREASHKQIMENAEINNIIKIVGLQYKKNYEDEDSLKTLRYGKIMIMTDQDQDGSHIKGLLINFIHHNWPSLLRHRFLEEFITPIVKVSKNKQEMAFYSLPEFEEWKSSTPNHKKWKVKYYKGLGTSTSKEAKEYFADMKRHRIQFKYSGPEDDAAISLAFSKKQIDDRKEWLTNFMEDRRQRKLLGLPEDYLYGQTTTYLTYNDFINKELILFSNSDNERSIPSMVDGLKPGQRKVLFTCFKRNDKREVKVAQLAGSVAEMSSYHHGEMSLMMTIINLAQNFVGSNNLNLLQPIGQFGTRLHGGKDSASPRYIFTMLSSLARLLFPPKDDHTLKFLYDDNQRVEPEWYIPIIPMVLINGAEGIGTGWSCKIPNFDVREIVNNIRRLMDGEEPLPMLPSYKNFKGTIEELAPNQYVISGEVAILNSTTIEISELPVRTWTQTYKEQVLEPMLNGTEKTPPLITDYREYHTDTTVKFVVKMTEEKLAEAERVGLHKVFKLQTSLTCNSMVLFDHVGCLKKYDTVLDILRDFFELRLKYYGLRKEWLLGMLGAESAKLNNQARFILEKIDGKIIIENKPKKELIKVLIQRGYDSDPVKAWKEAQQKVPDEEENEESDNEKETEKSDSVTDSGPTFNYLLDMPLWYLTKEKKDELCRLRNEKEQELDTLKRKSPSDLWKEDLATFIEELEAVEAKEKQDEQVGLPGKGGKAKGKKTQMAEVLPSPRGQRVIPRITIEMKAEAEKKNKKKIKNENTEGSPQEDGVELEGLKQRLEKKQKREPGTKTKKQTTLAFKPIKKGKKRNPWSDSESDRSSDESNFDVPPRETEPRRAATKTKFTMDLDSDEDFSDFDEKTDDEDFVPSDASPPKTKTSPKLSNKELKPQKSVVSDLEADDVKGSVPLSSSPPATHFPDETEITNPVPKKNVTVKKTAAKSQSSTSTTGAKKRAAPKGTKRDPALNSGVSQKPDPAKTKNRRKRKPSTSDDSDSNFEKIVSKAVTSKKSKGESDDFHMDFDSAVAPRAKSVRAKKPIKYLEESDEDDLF

Huh-7 [3] = experiment: Antiproliferative activity against human Huh-7 cells assessed as inhibition of cell viability by MTT assay; assay type: functional, cell-based; conditions: time 24-72 hrs, TDE = time-dependent effect
SK-HEP1 [4] = experiment: Antiproliferative activity against human SK-Hep1 cells assessed as inhibition of cell viability by MTT assay; assay type: functional, cell-based; conditions: time 24-72 hrs, TDE = time-dependent effect
Huh-7 [5] = experiment: Induction of cell cycle arrest in human Huh-7 cells assessed as accumulation at G1 phase at 80 nM treated for 24 hrs by PI staining based flow cytometry (reference value: 60.77 %); assay type: functional
Huh-7 [6] = experiment: Induction of cell cycle arrest in human Huh-7 cells assessed as accumulation at G2 phase at 40 nM treated for 24 hrs by PI staining based flow cytometry (reference value: 15.90 %); assay type: functional
Huh-7 [7] = experiment: Induction of cell cycle arrest in human Huh-7 cells assessed as accumulation at G1 phase at 10 nM treated for 24 hrs by PI staining based flow cytometry (reference value: 60.77 %); assay type: functional
Huh-7 [8] = experiment: Induction of cell cycle arrest in human Huh-7 cells assessed as accumulation at G2 phase at 10 nM treated for 24 hrs by PI staining based flow cytometry (reference value: 15.90 %); assay type: functional
Huh-7 [9] = experiment: Induction of apoptosis in human Huh-7 cells assessed as cell shrinkage incubated for 24 hrs by Giemsa staining based microscopy; assay type: functional; conditions: dose 12-60 nM, DDE = dose-dependent effect
SK-HEP1 [10] = experiment: Induction of apoptosis in human SK-Hep1 cells assessed as chromatin agglutination incubated for 24 hrs by Giemsa staining based microscopy; assay type: functional, cell-based; conditions: dose 12-60 nM, DDE = dose-dependent effect
SK-HEP1 [11] = experiment: Induction of apoptosis in human SK-Hep1 cells assessed as cytoskeleton disintegration incubated for 24 hrs by Giemsa staining based microscopy; assay type: functional, cell-based; conditions: dose 12-60 nM, DDE = dose-dependent effect
Huh-7 [12] = experiment: Induction of apoptosis in human Huh-7 cells assessed as early apoptotic cells at 10 nM incubated for 24 hrs by annexin V-FITC/PI staining flow cytometry (reference value: 0.33 %); assay type: functional
Huh-7 [13] = experiment: Induction of apoptosis in human Huh-7 cells assessed as late apoptotic cells at 10 nM incubated for 24 hrs by annexin V-FITC/PI staining flow cytometry (reference value: 1.33 %); assay type: functional
Huh-7 [14] = experiment: Induction of apoptosis in human Huh-7 cells assessed as viable cells at 40 nM incubated for 24 hrs by annexin V-FITC/PI staining flow cytometry (reference value: 97.3 %); assay type: functional; conditions: read-out: Activity
Huh-7 [15] = experiment: Induction of apoptosis in human Huh-7 cells assessed as necrotic cells at 40 nM incubated for 24 hrs by annexin V-FITC/PI staining flow cytometry (reference value: 1.08 %); assay type: functional
SK-HEP1 [16] = experiment: Induction of apoptosis in human SK-Hep1 cells assessed as viable cells at 10 nM incubated for 24 hrs by annexin V-FITC/PI staining flow cytometry (reference value: 97.8 %); assay type: functional; conditions: read-out: Activity
SK-HEP1 [17] = experiment: Induction of apoptosis in human SK-Hep1 cells assessed as viable cells at 40 nM incubated for 24 hrs by annexin V-FITC/PI staining flow cytometry (reference value: 97.8 %); assay type: functional; conditions: read-out: Activity
SK-HEP1 [18] = experiment: Induction of apoptosis in human SK-Hep1 cells assessed as viable cells at 80 nM incubated for 24 hrs by annexin V-FITC/PI staining flow cytometry (reference value: 97.8 %); assay type: functional; conditions: read-out: Activity
SK-HEP1 [19] = experiment: Induction of apoptosis in human SK-Hep1 cells assessed as necrotic cells at 80 nM incubated for 24 hrs by annexin V-FITC/PI staining flow cytometry (reference value: 0.73 %); assay type: functional
SK-HEP1 [20] = experiment: Induction of mitochondrial membrane potential changes in human SK-Hep1 cells assessed as decrease in TMRE positive cells incubated for 24 hrs by TMRE staining based flow cytometry; assay type: functional, cell-based; conditions: dose 10-80 nM, DDE = dose-dependent effect
SK-HEP1 [21] = experiment: Inhibition of cell migration in human SK-HEP1 cells incubated for 24 hrs by scratch wound healing assay; assay type: functional, cell-based; conditions: dose 3-18 nM, DDE = dose-dependent effect
HSC-T6 [22] = experiment: Suppression of TGF-beta-1-stimulated rat HSC-T6 cells activation assessed as reduction in Col-1 levels at 10 to 80 nM preincubated with TGFbeta-1 followed by compound addition and measured after 24 to 48 hrs by ELISA; assay type: functional, cell-based; conditions: dose 10-80 nM, time 24-48 hrs
HSC-T6 [23] = experiment: Suppression of TGF-beta-1-stimulated rat HSC-T6 cells activation assessed as reduction in Col-1 levels preincubated with TGFbeta-1 followed by compound addition and measured after 24 to 48 hrs by ELISA; assay type: functional, cell-based; conditions: dose 10-80 nM, time 24-48 hrs, DDE = dose-dependent effect
[24] = Induction of apoptosis in rat HSC-T6 cells assessed as viable cells at 40 nM pretreated with TGFbeta-1 for 1 day followed by compound addition and measured after 24 hrs by flow cytometry (reference value: 97.5 %); assay type: functional; conditions: read-out: Activity
Huh-7 [25] = experiment: Inhibition of cell invasion in human Huh-7 cells at 3 to 18 nM incubated for 24 hrs by matrigel based assay; assay type: functional; conditions: dose 3-18 nM

| SMILES | inhibition [1] [%] | inhibition [2] [%] | Activity (Huh-7 [3]) | Activity (SK-HEP1 [4]) | Activity (Huh-7 [5]) [%] | Activity (Huh-7 [6]) [%] | Activity (Huh-7 [7]) [%] | Activity (Huh-7 [8]) [%] | Activity (Huh-7 [9]) | Activity (SK-HEP1 [10]) | Activity (SK-HEP1 [11]) | Activity (Huh-7 [12]) [%] | Activity (Huh-7 [13]) [%] | viability at 0.04 µM (Huh-7 [14]) [%] | Activity (Huh-7 [15]) [%] | viability at 0.01 µM (SK-HEP1 [16]) [%] | viability at 0.04 µM (SK-HEP1 [17]) [%] | viability at 0.08 µM (SK-HEP1 [18]) [%] | Activity (SK-HEP1 [19]) [%] | Activity (SK-HEP1 [20]) | other results |
| --- | --- | --- | --- | --- | --- | --- | --- | --- | --- | --- | --- | --- | --- | --- | --- | --- | --- | --- | --- | --- | --- |
| O=C1c2cc(F)cc(F)c2N(c2cccc(F)c2)C2c3[nH]c4ccc(O)cc4c3CCN12 (stereo not given) | 92.5 | 67 | Tde | Tde | 10.64 | 63.75 | 46.78 | 26.52 | Dde | Dde | Dde | 0.73 | 4.61 | 79.5 | 4.51 | 92.9 | 74.7 | 73.4 | 2.39 | Dde | inhibition (SK-HEP1 [21]): Dde; inhibition (HSC-T6 [22]): Active; Activity (HSC-T6 [23]): Dde; viability at 0.04 µM [24]: 98.3%; inhibition (Huh-7 [25]): Active |
| CC(=O)Oc1ccc2[nH]c3c(c2c1)CCN1C(=O)c2cc(F)cc(F)c2N(c2cccc(F)c2)C31 (stereo not given) | 94 | 63.7 | Tde | Tde | 17.18 | 50.27 | 51.9 | 13.54 | Dde | Dde | Dde | 0.63 | 4.02 | 62.9 | 10.1 | 86.7 | 75.9 | 84 | 2.63 | Dde | inhibition (SK-HEP1 [21]): Dde; inhibition (HSC-T6 [22]): Active; Activity (HSC-T6 [23]): Dde; viability at 0.04 µM [24]: 85.6%; inhibition (Huh-7 [25]): Active |
